Laboratory results taken from US9353096B2, “Substituted phenylcarbamate compounds” (Hoffmann-La Roche Inc., priority 2012, dated 2016).
Counter-ions that a name gives are not always drawn.

target: hTRPA1 (Homo sapiens, UniProt O75762); test: Dose response calcium flux (FLIPR) assay, ChanTest hTRPA1-CHO stably transfected cell line, cinnamaldehyde agonist; assay type: cell-based; conditions: CHO-K1 Tet-On hTRPA1 cells, 100 uM cinnamaldehyde agonist, 30 min preincubation
Procedure: Dose Response Assay:ChanTest hTRPA1-CHO Stably Transfected Cell Line
CHO-K1 Tet-On_HOMSA_TRPA1_Clone_20
Growth Media for CHO-K1 Tet-On_HOMSA_TRPA1_Clone_20 • Ham's F-12 with 10% tetracycline-free FBS • 1× penicillin-streptomycin • 1× glutamax • 0.01 mg/ml Blasticidin • 0.40 mg/ml Zeocin • The cell line doubling rate was ˜15 h. […] Experiments were run at 24 h post induction.
Plating Conditions CHOK1/TRPA1 Cells: • Harvested cells with 0.025% trypsin/EDTA. • Resuspended cells in growth media without selection antibiotics. • Measured cell density and diluted to 2.4×10^5 cells/ml in media containing 1 ug/ml Doxycycline Plate 25 ul/well into 384 well black/clear tissue culture-treated plates. • Incubated overnight at 37° C.
Replacement Buffer: Hank's Balanced Salt Solution, 20 mM HEPES along with 0.005% BSA and 2× Probenecid
Dye Loading Buffer: Cal-3 NW Calcium dye was prepared by dissolving the contents of one vial with […] Hank's Balanced Salt Solution containing 20 mM HEPES.
AP-18, stock 10 mM, prepare 3.5× compound dilution in a Compound Buffer (HBSS/20 mM HEPES/0.005% BSA)—final concentration 10 uM.
Preparation of Cinnamaldehyde (Agonist Addition): • FW=132.16 • Specific gravity=1.046 gm/cc • 1.32 gm/1.046 gm/cc=1.26 ml of stock • Add 1.74 ml DMSO=3.3 M stock • Working solution 4.5× (final 100 uM in Compound Buffer: HBSS/20 mM HEPES/0.005% BSA)
Compounds dilutions were prepared from 5 or 10 mM stock (100% DMSO): • Adjustments of volumes and concentrations were made at time of titration to reflect desired final assay concentrations. • Compounds were tested at either 20 μM three folds dilution 11 steps out or 30 μM two folds dilution 11 steps out. • 3 μl of diluted compound were transferred into Weidmann 384-well plate in duplicates side-by-side. • Compound plates were resuspended with 100 ul of HBSS/20 mM HEPES/0.005% BSA buffer (Compound Buffer): • column 1A-H: buffer/DMSO (bk) • column 2A-H: AP-18 (control antagonist for CHOK1 TRPA1 cells) • column 1I-P: ATP (control for CHOK1 teton cells) • column 2I-P: 2APB (control antagonist for CHOK1/TRPM8 cells).
Growth media was removed from the cell plates (20 ul) and 20 μl of the Replacement Buffer was added followed by addition of 25 μl of diluted dye. All three steps were performed using a Plate Washer BioTek 407. The plates were then incubated for 30′ at RT.
After incubation, both the cell and compound plates were brought to the FLIPR and 20 μl of the diluted compounds/antagonist/bk were transferred to the cell plates by the FLIPR. Plates were then incubated for 30′ at room temperature. After 30′ incubation, plates were returned to the FLIPR and 20 μl of 4.5× Cinnamaldehyde was added to the cell plates. During the compound addition as well as agonist addition, fluorescence readings were taken simultaneously from all 384 wells of the cell plate every 1.5 seconds. Five readings were taken to establish a stable baseline, then 20 μl of sample was rapidly (30 ul/sec) and simultaneously added to each well of the cell plate. The fluorescence was continuously monitored before, during and after sample/agonist addition for a total elapsed time of 100 seconds (compound addition) and 120 seconds (agonist addition). Responses (increase in peak fluorescence) in each well following agonist addition was determined. The initial fluorescence reading from each well, prior to ligand stimulation, was used a zero baseline value for the data from that well.

Chain of hTRPA1 (O75762 whole entry): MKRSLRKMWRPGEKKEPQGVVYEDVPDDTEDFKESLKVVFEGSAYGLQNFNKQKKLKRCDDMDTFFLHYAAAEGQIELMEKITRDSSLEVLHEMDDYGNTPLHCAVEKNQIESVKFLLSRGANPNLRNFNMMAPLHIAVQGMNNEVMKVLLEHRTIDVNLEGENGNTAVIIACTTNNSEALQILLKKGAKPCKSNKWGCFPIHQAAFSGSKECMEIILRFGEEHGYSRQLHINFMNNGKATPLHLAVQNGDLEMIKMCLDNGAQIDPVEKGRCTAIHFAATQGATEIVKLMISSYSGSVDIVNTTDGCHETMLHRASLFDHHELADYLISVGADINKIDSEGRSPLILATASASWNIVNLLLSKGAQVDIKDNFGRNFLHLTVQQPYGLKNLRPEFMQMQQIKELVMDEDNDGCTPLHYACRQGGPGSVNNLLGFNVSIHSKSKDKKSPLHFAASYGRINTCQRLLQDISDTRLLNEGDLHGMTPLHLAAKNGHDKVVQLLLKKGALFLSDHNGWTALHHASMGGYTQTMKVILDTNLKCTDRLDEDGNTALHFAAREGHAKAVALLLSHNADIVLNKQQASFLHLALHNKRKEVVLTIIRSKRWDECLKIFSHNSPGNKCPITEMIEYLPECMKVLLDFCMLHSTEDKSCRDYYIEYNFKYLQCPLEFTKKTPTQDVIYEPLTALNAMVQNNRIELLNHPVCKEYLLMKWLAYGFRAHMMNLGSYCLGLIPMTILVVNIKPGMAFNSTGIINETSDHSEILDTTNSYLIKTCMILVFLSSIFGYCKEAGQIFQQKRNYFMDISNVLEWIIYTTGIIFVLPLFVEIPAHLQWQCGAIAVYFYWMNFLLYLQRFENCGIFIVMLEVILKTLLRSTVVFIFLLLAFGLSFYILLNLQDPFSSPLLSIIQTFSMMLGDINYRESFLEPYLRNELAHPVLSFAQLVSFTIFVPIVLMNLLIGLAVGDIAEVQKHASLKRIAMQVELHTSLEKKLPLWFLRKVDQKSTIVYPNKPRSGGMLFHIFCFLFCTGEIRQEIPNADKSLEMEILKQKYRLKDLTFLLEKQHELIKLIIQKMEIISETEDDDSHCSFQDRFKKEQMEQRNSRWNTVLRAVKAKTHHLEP

| IC50 [nM] | Structure (SMILES) |
| --- | --- |
| 3580 | O=C(Nc1ccc(Cl)cc1)O[C@@H](CN1CCO[C@@H](Cc2ccccc2)C1)C(F)(F)F (single isomer, unassigned) [Example 10, hydrochloride] |
| 803 | COc1cccc([C@H]2CN(C[C@H](OC(=O)Nc3ccc(Cl)cc3)C(F)(F)F)CCO2)c1 (single isomer, unassigned) [Example 15] |
| 191 | O=C(Nc1ccc(Cl)cc1)O[C@@H](CN1CCS(=O)(=O)[C@@H](c2cccc(C(F)(F)F)c2)C1)C(F)(F)F (single isomer, unassigned) [Example 19] |
| 1100 | O=C(Nc1ccc(Cl)c(F)c1)O[C@@H](CN1CCS(=O)(=O)[C@@H](c2cccc(C(F)(F)F)c2)C1)C(F)(F)F (single isomer, unassigned) [Example 21] |
| 781 | O=C(Nc1ccc(Cl)c(F)c1)O[C@@H](CN1CCO[C@@H](c2ccc(C(F)(F)F)nc2)C1)C(F)(F)F (single isomer, unassigned) [Example 23, hydrochloride] |
| 846 | CC(C)c1nccc([C@H]2CN(C[C@H](OC(=O)Nc3ccc(Cl)c(F)c3)C(F)(F)F)CCO2)n1 (single isomer, unassigned) [Example 26, hydrochloride] |
| 198 | O=C(Nc1ccc(Cl)cc1)O[C@@H](CN1CCO[C@@H](c2ccc(C(F)(F)F)cc2)C1)C(F)(F)F (single isomer, unassigned) [Example 30, hydrochloride] |
| 196 | O=C(Nc1ccc(Cl)c(F)c1)O[C@@H](CN1CCO[C@@H](c2ccc(F)c(F)c2)C1)C(F)(F)F (single isomer, unassigned) [Example 35, hydrochloride] |
| 4.91 | O=C(Nc1ccc(Cl)cc1)O[C@@H](CN1CCO[C@H](c2ccc(F)c(C(F)(F)F)c2)C1)C(F)(F)F [Example 1, (4-Chlorophenyl)-carbamic acid (S)-2,2,2-trifluoro-1-[(R)-2-(4-fluoro-3-trifluoromethylphenyl)-morpholin-4-ylmethyl]-ethyl ester hydrochloride] |
| 8.5 | O=C(Nc1ccc(Cl)cc1)O[C@@H](CN1CCOC(c2ccc(F)c(C(F)(F)F)c2)C1)C(F)(F)F (stereo partly drawn) [Example 2, (4-Chlorophenyl)-carbamic acid (S)-2,2,2-trifluoro-1-[2-(4-fluoro-3-trifluoromethylphenyl)-morpholin-4-ylmethyl]-ethyl ester hydrochloride] |
| 14.3 | O=C(Nc1ccc(Cl)c(F)c1)O[C@@H](CN1CCO[C@H](c2ccc(F)c(C(F)(F)F)c2)C1)C(F)(F)F [Example 3, (4-Chloro-3-fluorophenyl)-carbamic acid (S)-2,2,2-trifluoro-1-[(R)-2-(4-fluoro-3-trifluoromethylphenyl)-morpholin-4-ylmethyl]-ethyl ester hydrochloride] |
| 42.4 | O=C(Nc1ccc(Cl)c(F)c1)O[C@@H](CN1CCO[C@H](c2ccc(Cl)c(F)c2)C1)C(F)(F)F [Example 4, (4-Chloro-3-fluorophenyl)-carbamic acid (S)-1-[(R)-2-(4-chloro-3-fluorophenyl)-morpholin-4-ylmethyl]-2,2,2-trifluoroethyl ester hydrochloride] |
| 30.7 | O=C(Nc1ccc(Cl)c(F)c1)O[C@@H](CN1CCO[C@H](c2ccc(F)c(Cl)c2)C1)C(F)(F)F [Example 5, (4-Chloro-3-fluorophenyl)-carbamic acid (S)-1-[(R)-2-(3-chloro-4-fluorophenyl)-morpholin-4-ylmethyl]-2,2,2-trifluoroethyl ester hydrochloride] |
| 50.5 | O=C(Nc1ccc(Cl)c(F)c1)O[C@@H](CN1CCO[C@H](c2cccc(Cl)c2)C1)C(F)(F)F [Example 6, (4-Chloro-3-fluorophenyl)-carbamic acid (S)-1-[(R)-2-(3-chlorophenyl)-morpholin-4-ylmethyl]-2,2,2-trifluoroethyl ester hydrochloride] |
| 47 | O=C(Nc1ccc(Cl)c(F)c1)O[C@@H](CN1CCO[C@H](c2cccc(Cl)c2)C1)C(F)(F)F [Example 7, (4-Chloro-3-fluorophenyl)-carbamic acid (S)-1-[(R)-2-(3-chlorophenyl)-morpholin-4-ylmethyl]-2,2,2-trifluoroethyl ester hydrochloride] |
| 597 | O=C(Nc1ccc(Cl)c(F)c1)O[C@@H](CN1CCO[C@@H](c2cccc(Cl)c2)C1)C(F)(F)F [Example 8, (4-Chloro-3-fluorophenyl)-carbamic acid (S)-1-[(S)-2-(3-chlorophenyl)-morpholin-4-ylmethyl]-2,2,2-trifluoroethyl ester hydrochloride] |
| 121 | O=C(Nc1ccc(Cl)cc1)O[C@@H](CN1CCO[C@H](Cc2ccccc2)C1)C(F)(F)F [Example 9, (4-Chlorophenyl)-carbamic acid (S)-1-((R)-2-benzyl-morpholin-4-ylmethyl)-2,2,2-trifluoroethyl ester hydrochloride] |
| 5.58 | O=C(Nc1ccc(Cl)cc1)O[C@@H](CN1CCO[C@H](c2cccc(C(F)(F)F)c2)C1)C(F)(F)F [Example 11, (4-Chlorophenyl)-carbamic acid (S)-2,2,2-trifluoro-1-[(R)-2-(3-trifluoromethylphenyl)-morpholin-4-ylmethyl]-ethyl ester hydrochloride] |
| 108 | O=C(Nc1ccc(Cl)cc1)O[C@@H](CN1CCO[C@@H](c2cccc(C(F)(F)F)c2)C1)C(F)(F)F [Example 12, (4-Chlorophenyl)-carbamic acid (S)-2,2,2-trifluoro-1-[(S)-2-(3-trifluoromethylphenyl)-morpholin-4-ylmethyl]-ethyl ester hydrochloride] |
| 6.35 | O=C(Nc1ccc(Cl)c(F)c1)O[C@@H](CN1CCO[C@H](c2cccc(C(F)(F)F)c2)C1)C(F)(F)F [Example 13, (4-Chloro-3-fluorophenyl)-carbamic acid (S)-2,2,2-trifluoro-1-[(R)-2-(3-trifluoromethylphenyl)-morpholin-4-ylmethyl]-ethyl ester hydrochloride] |
| 36.1 | COc1cccc([C@@H]2CN(C[C@H](OC(=O)Nc3ccc(Cl)cc3)C(F)(F)F)CCO2)c1 [Example 14, (4-Chlorophenyl)-carbamic acid (S)-2,2,2-trifluoro-1-[(R)-2-(3-methoxyphenyl)-morpholin-4-ylmethyl]-ethyl ester] |
| 152 | COc1cccc([C@@H]2CN(C[C@H](OC(=O)Nc3ccc(Cl)cc3)C(F)(F)F)CCS2(=O)=O)c1 [Example 16, (4-Chlorophenyl)-carbamic acid (S)-2,2,2-trifluoro-1-[(R)-2-(3-methoxyphenyl)-1,1-dioxo-1λ^6-thiomorpholin-4-ylmethyl]ethyl ester] |
| 390 | COc1cccc(C2CN(C[C@H](OC(=O)Nc3ccc(Cl)cc3)C(F)(F)F)CCS2(=O)=O)c1 (stereo partly drawn) [Example 17, (4-Chlorophenyl)-carbamic acid (S)-2,2,2-trifluoro-1-[2-(3-methoxyphenyl)-1,1-dioxo-1λ^6-thiomorpholin-4-ylmethyl]-ethyl ester] |
| 42.5 | O=C(Nc1ccc(Cl)cc1)O[C@@H](CN1CCS(=O)(=O)[C@H](c2cccc(C(F)(F)F)c2)C1)C(F)(F)F [Example 18, (4-Chlorophenyl)-carbamic acid (S)-1-[(R)-1,1-dioxo-2-(3-trifluoromethylphenyl)-1λ^6-thiomorpholin-4-ylmethyl]-2,2,2-trifluoroethyl ester] |
